Test results from article PMC9329436, “Optimization of the 4-anilinoquin(az)oline scaffold as epidermal growth factor receptor (EGFR) inhibitors for chordoma utilizing a toxicology profiling assay platform” (Scientific Reports, 2022).

Test system: U-CH1 chordoma cell line
Assay: Cell viability assay (alamarBlue, 72 h), U-CH1
Format: cell-based, human
Settings: Homo sapiens, UCH1, n = 4, 72 h
Description: (§1) Chordoma cell lines were cultured as described previously[10],[12],[33],[34]. Briefly, U-CH1 and U-CH2 cell lines were cultured in 4:1 IMDM:RPMI medium supplemented with 10% fetal bovine serum (FBS) and 1% penicillin/streptomycin in gel-coated flasks. […] CH22, UM-Chor1, U-CH12, and U-CH7 cell lines were cultured in RPMI medium supplemented with 10% FBS and 1% penicillin/streptomycin. The cell lines all undergo regular mycoplasma screening.
(§2) Cells were seeded in 384 well plates and were treated with test compound in quadruplicate 24 h after plating. Cell viability was assessed at 72 h using alamarBlue (ThermoFisher, USA). […] IC50 values were determined by four-parameter nonlinear regression analyses using GraphPad Prism™ version 8 software (San Diego, CA).

SMILES | IC50 [µM]
C#Cc1cccc(Nc2c(C#N)cnc3cc(OC)c(OC)cc23)c1 [Compound 22, 4-((3-ethynylphenyl)amino)-6,7-dimethoxyquinoline-3-carbonitrile] | 4.1

Same assay, conditions: n = 4, 72 h

SMILES | IC50 [µM]
C#Cc1cccc(Nc2ncnc3ccc(C)cc23)c1 [Compound 4] | 15
C#Cc1cccc(Nc2ncnc3ccc(F)cc23)c1 [Compound 5] | 19
C#Cc1cccc(Nc2ncnc3ccc(Cl)cc23)c1 [Compound 7] | 25
C#Cc1cccc(Nc2ncnc3ccc(Br)cc23)c1 [Compound 8] | 16
C#Cc1cccc(Nc2ncnc3ccc(C(F)(F)F)cc23)c1 [Compound 10] | 21
C#Cc1cccc(Nc2ncnc3cc(F)ccc23)c1 [Compound 12] | 41
C#Cc1cccc(Nc2ncnc3cc(Br)ccc23)c1 [Compound 14] | 54
C#Cc1cccc(Nc2ncnc3ccc(C#N)cc23)c1 [Compound 18] | 74
C#Cc1cccc(Nc2ncnc3ccc(S(C)(=O)=O)cc23)c1 [Compound 19] | 45
C#Cc1cccc(Nc2ncnc3cc4c(cc23)OCO4)c1 [Compound 20] | 22
C#Cc1cccc(Nc2c(C#N)cnc3ccc(OC)cc23)c1 [Compound 23] | 20
C#Cc1cccc(Nc2c(C#N)cnc3ccccc23)c1 [Compound 24] | 34
C#Cc1cccc(Nc2c(C#N)cnc3ccc(F)cc23)c1 [Compound 25] | 23

Test system: U-CH2 chordoma cell line
Assay: Cell viability assay (alamarBlue, 72 h), U-CH2
Format: cell-based, human
Settings: Homo sapiens, UCH2, n = 4, 72 h
Description: as §1, §2

SMILES | IC50 [µM]
C#Cc1cccc(Nc2c(C#N)cnc3cc(OC)c(OC)cc23)c1 [Compound 22, 4-((3-ethynylphenyl)amino)-6,7-dimethoxyquinoline-3-carbonitrile] | 36

Same assay, conditions: n = 4, 72 h

SMILES | IC50 [µM]
C#Cc1cccc(Nc2ncnc3ccc(C)cc23)c1 [Compound 4] | > 100
C#Cc1cccc(Nc2ncnc3ccc(F)cc23)c1 [Compound 5] | > 100
C#Cc1cccc(Nc2ncnc3ccc(Cl)cc23)c1 [Compound 7] | > 100
C#Cc1cccc(Nc2ncnc3ccc(Br)cc23)c1 [Compound 8] | > 100
C#Cc1cccc(Nc2ncnc3ccc(C(F)(F)F)cc23)c1 [Compound 10] | 42
C#Cc1cccc(Nc2ncnc3cc(F)ccc23)c1 [Compound 12] | > 100
C#Cc1cccc(Nc2ncnc3cc(Br)ccc23)c1 [Compound 14] | > 100
C#Cc1cccc(Nc2ncnc3ccc(C#N)cc23)c1 [Compound 18] | > 100
C#Cc1cccc(Nc2ncnc3ccc(S(C)(=O)=O)cc23)c1 [Compound 19] | 52
C#Cc1cccc(Nc2ncnc3cc4c(cc23)OCO4)c1 [Compound 20] | > 100
C#Cc1cccc(Nc2c(C#N)cnc3ccc(OC)cc23)c1 [Compound 23] | > 100
C#Cc1cccc(Nc2c(C#N)cnc3ccccc23)c1 [Compound 24] | > 100
C#Cc1cccc(Nc2c(C#N)cnc3ccc(F)cc23)c1 [Compound 25] | > 100

Test system: HL60 cells
Assay: AsedaSciences SYSTEMETRIC Cell Health Screen (flow cytometry toxicity profiling)
Settings: HL60, 4 h, 5 nM–100 µM, probability 0–1, n = 2
From the text: To prioritize further optimization, in addition to cellular potency, we utilized the AsedaSciences® […]® Cell Health Screen. This live cell flow cytometry (FC) screen was developed to assess human safety risk for candidate pharmaceutical small molecules at the early hit-to-lead stage of development. The screen works by estimating the risk using a supervised machine learning (ML) classifier to assess a multiparametric cellular stress phenotype, produced by the test compound, relative to a training set of known compounds (Table S1). This screen has been designed for early pipeline risk estimation regardless of pharmaceutical class/disease type, so it uses HL60 as the reporter cell line.
The ML classifier was trained with 300 historically known compounds (on market or withdrawn drugs, research compounds, etc.), which were divided into two outcome classes based upon literature, clinical trials, and market histories where applicable. This external curation informed an outcome of “high-risk” or “low-risk”. All 300 compounds were also processed through the automated FC screen, populating each of the two classes with frequency distributions of empirical cell-based phenotypes.
To estimate human safety risk for an unknown compound, the ML classifier assesses the similarity of the test compound’s cell-based phenotype to the distributions of phenotypes in the two outcome classes. […] Phenotypes are derived from twelve FC detection parameters, including light scatter and a series of fluorescent physiological reporter dyes, that track cell stress-related endpoints.
To produce the Cell Health Index, the ML classifier uses all twelve FC parameters simultaneously in a multidimensional logistic regression model, so the CHI contains the most predictive power. In addition to the Cell Health Index, Table 4 also reports probability scores for eight cell stress-related endpoints. These scores are produced individually by passing information to the ML classifier relating to parameters that inform that endpoint. For example, to produce the cell morphology (CM) score, the ML classifier only uses the FC detection parameters for forward scatter (informing change in cell diameter) and side scatter (informing change in optical granularity of the cell) to inform the model. Together, these eight endpoints provide a “biological fingerprint”, allowing assessment of the degree to which SAR series members behave differently across endpoints.
In a 384-well platform, HL60 cells were exposed to a 10-step, 3 × dilution series of each test compound (5 nM–100 µM) for 4 h at 37 °C with 5% CO2. Each dilution series was screened in duplicate, occupying a total of 20 wells, allowing 16 test compounds to be assayed per plate. Each row contained one positive and one negative control well, for a total of 16 replicate positive/negative control pairs on each assay plate. Compound formatting, cell deposition, and dye application were performed robotically so that final assay conditions comprised 100,000 cells in a 40 µL volume. After the 4 h compound exposure, cells were immediately stained with a panel of fluorescent dyes that report physiological signatures of both mitochondrial dysfunction and gross cell stress. Fluorescence and forward/side-scatter data were collected using automated FC with no gating. FC data are processed by an automated algorithm for producing quality control measures and ML classification of compound phenotypes. • 2. HL60 cell culture production
HL60 cells were produced as suspension cultures in glass 850 cm^2 roller bottles with vented caps, at 1 RPM, 5% CO2, and 37 °C. […] Culture density was maintained at or below 1 × 10^6 cells/mL.

SMILES | CC: Cell Cycle score | CM: Cell morphology score | CMI: Cell membrane integrity score | GSH: Glutathione score | MMP: Mitochondrial membrane depolarization score | NMI1: Nuclear membrane integrity 1 score | NMI2: Nuclear membrane integrity 2 score | ROS: Reactive superoxide species score
C#Cc1cccc(Nc2ncnc3ccc(C)cc23)c1 [Compound 4] | 0.65 | 0.0051 | 0.21 | 0.12 | 0.49 | 0.059 | 0.17 | 0.20
C#Cc1cccc(Nc2ncnc3ccc(F)cc23)c1 [Compound 5] | 0.34 | 0.0041 | 0.091 | 0.087 | 0.26 | 0.082 | 0.11 | 0.34
C#Cc1cccc(Nc2ncnc3ccc(Cl)cc23)c1 [Compound 7] | 0.10 | 0.0047 | 0.030 | 0.011 | 0.015 | 0.13 | 0.053 | 0.20
C#Cc1cccc(Nc2ncnc3ccc(Br)cc23)c1 [Compound 8] | 0.087 | 0.0037 | 0.0024 | 0.05 | 0.11 | 0.13 | 0.020 | 0.083
C#Cc1cccc(Nc2ncnc3ccc(C(F)(F)F)cc23)c1 [Compound 10] | 0.59 | 0.058 | 0.045 | 0.004 | 0.74 | 0.21 | 0.19 | 0.77
C#Cc1cccc(Nc2ncnc3cc(F)ccc23)c1 [Compound 12] | 0.59 | 0.058 | 0.045 | 0.004 | 0.74 | 0.21 | 0.19 | 0.77
C#Cc1cccc(Nc2ncnc3cc(Br)ccc23)c1 [Compound 14] | 0.74 | 0.024 | 0.41 | 0.010 | 0.17 | 0.033 | 0.3 | 0.86
C#Cc1cccc(Nc2ncnc3ccc(C#N)cc23)c1 [Compound 18] | 0.27 | 0.0026 | 0.0079 | 0.023 | 0.11 | 0.33 | 0.094 | 0.042
C#Cc1cccc(Nc2ncnc3ccc(S(C)(=O)=O)cc23)c1 [Compound 19] | 0.33 | 0.0013 | 0.0057 | 0.044 | 0.21 | 0.36 | 0.089 | 0.055
C#Cc1cccc(Nc2ncnc3cc4c(cc23)OCO4)c1 [Compound 20] | 0.13 | 0.0019 | 0.0038 | 0.087 | 0.016 | 0.72 | 0.0045 | 0.027

Same assay, conditions: HL60, 4 h, 5 nM–100 µM, probability (0–1) of high-risk class, n = 2

SMILES | CHI: Cell Health Index
C#Cc1cccc(Nc2ncnc3ccc(C)cc23)c1 [Compound 4] | 0.31
C#Cc1cccc(Nc2ncnc3ccc(F)cc23)c1 [Compound 5] | 0.26
C#Cc1cccc(Nc2ncnc3ccc(Cl)cc23)c1 [Compound 7] | 0.16
C#Cc1cccc(Nc2ncnc3ccc(Br)cc23)c1 [Compound 8] | 0.19
C#Cc1cccc(Nc2ncnc3ccc(C(F)(F)F)cc23)c1 [Compound 10] | 0.40
C#Cc1cccc(Nc2ncnc3cc(F)ccc23)c1 [Compound 12] | 0.40
C#Cc1cccc(Nc2ncnc3cc(Br)ccc23)c1 [Compound 14] | 0.33
C#Cc1cccc(Nc2ncnc3ccc(C#N)cc23)c1 [Compound 18] | 0.18
C#Cc1cccc(Nc2ncnc3ccc(S(C)(=O)=O)cc23)c1 [Compound 19] | 0.22
C#Cc1cccc(Nc2ncnc3cc4c(cc23)OCO4)c1 [Compound 20] | 0.18

Same assay, conditions: SYSTEMETRIC Cell Health Screen; assay n=2

SMILES | Cell Health Toxcity Profile CC (DyeCycle Violet) | Cell Health Toxcity Profile CM (Cell morphology) | Cell Health Toxcity Profile CMI (Cell membrane integrity) | Cell Health Toxcity Profile GSH (Glutathione) | Cell Health Toxcity Profile MMP (Mitochondrial membrane depolarization) | Cell Health Toxcity Profile NMI1 (Nuclear membrane integrity 1) | Cell Health Toxcity Profile NMI2 (Nuclear membrane integrity 2) | Cell Health Toxcity Profile ROS (Reactive superoxide species)
C#Cc1cccc(Nc2c(C#N)cnc3cc(OC)c(OC)cc23)c1 [Compound 22, 4-((3-ethynylphenyl)amino)-6,7-dimethoxyquinoline-3-carbonitrile] | 0.33 | 0.35 | 0.77 | 0.071 | 0.39 | 0.67 | 0.29 | 0.81
C#Cc1cccc(Nc2c(C#N)cnc3ccc(OC)cc23)c1 [Compound 23] | 0.74 | 0.020 | 0.0039 | 0.0085 | 0.28 | 0.30 | 0.11 | 0.056
C#Cc1cccc(Nc2c(C#N)cnc3ccccc23)c1 [Compound 24] | 0.76 | 0.99 | 1.00 | 0.98 | 0.97 | 0.85 | 0.81 | 0.98
C#Cc1cccc(Nc2c(C#N)cnc3ccc(F)cc23)c1 [Compound 25] | 0.76 | 0.98 | 0.99 | 0.97 | 0.96 | 0.71 | 0.72 | 0.93

Same assay, conditions: SYSTEMETRIC Cell Health Screen; classifier output; assay n=2

SMILES | Cell Health Toxcity Profile CHI
C#Cc1cccc(Nc2c(C#N)cnc3cc(OC)c(OC)cc23)c1 [Compound 22, 4-((3-ethynylphenyl)amino)-6,7-dimethoxyquinoline-3-carbonitrile] | 0.40
C#Cc1cccc(Nc2c(C#N)cnc3ccc(OC)cc23)c1 [Compound 23] | 0.26
C#Cc1cccc(Nc2c(C#N)cnc3ccccc23)c1 [Compound 24] | 0.70
C#Cc1cccc(Nc2c(C#N)cnc3ccc(F)cc23)c1 [Compound 25] | 0.69
